Experimental data taken from patent publication US20050054555A1, “Kahalalide compounds for use in cancer therapy” (priority 2001, published 2005).
Entries after “also recorded” stand apart in the source; their conditions may differ.

Columns and labels:
[1] = test system: human patients afflicted with cancer; assay: Clinical programme (both phase I trials): toxicity summary; type: in vivo
Experimental: Clinical trials were carried out based on the following protocols:
(§1) The rate of subject entry and escalation to the next dose level will depend upon assessment of the safety profile of patients entered at each dose level. Toxicity will be evaluated and graded according to the Common Toxicity Criteria, version 2.0.

[2] = test system: patients with solid tumours; assay: Phase I trial KHF-A-002-01: safety of Kahalalide F weekly infusion over 1 hour; type: in vivo, human
Description: as §1
In order to minimize the number of patients treated at the subtoxic dose levels, a single patient will be treated per dose level with 100% dose escalation in the absence of any toxicity G2 (excluding alopecia) during their first course of treatment. After the occurrence of grade 2 toxicity (excluding asthenia, alopecia, nausea and vomiting or anemia), the dose level is expanded to three patients with only 50% incremental increase in dosage in advancing to the next dose level. For the occurrence of grade 3 non-hematological toxic effects the dose level should be expanded up to six patients. This second cohort of 3 patients will be included consecutively. If the first or second patient develops dose limiting toxicities no further patients will be treated at this dose level, it will be defined as MTD and the accrual will begin at a lower dose level. If only one DLT occurs at this dose level another 3 patients will be included at the next dose level with an increase of 25% only.
The maximum tolerated dose (MTD) is defined as the dose at which at least 2 out of 3 or more than 3 patients experience DLT. However, it is possible that additional patients may experience DLT due to the timing of patient enrollment into that dose level.
The toxicity will be evaluated and clasified in grades according to the Common Toxicity Criteria (CTC) version NCI 2.0, March 1998.
Dose Limiting Toxicities (DLTs) are Defined as Follows: […]
ANC <500/mm3 for more than 5 days.
ANC <500/mm3 with a temperature of 38'5 or more.
Any other non-hematological grade 3-4 toxicity excluding: nausea, emesis without prophilaxis
G3 transaminases increase >14 days
Hypersensibility reactions

solid tumours = test system: solid tumours
Experimental: KHF-A-002-01. Phase I Clinical and Pharmacokinetic study to determine the safety of Kahalalide F administered as a weekly infusion over 1 hour in patients with solid tumours.
This trial was addressed to any solid tumours and was designed as a classical escalation. […] One cycle in this trial means a week, so 4 cycles mean 1 month of treatment.

female mice = conditions: single bolus iv injection; cited from earlier work
[3] = weekly 1 h infusion, all dose levels
[4] = weekly 1 h infusion, all dose levels, 19 patients evaluated
[5] = weekly 1 h infusion, all dose levels, head prints 20 patients
[6] = 400 mcg/m2 weekly, 6 months (24 cycles)

## C/C=C1\NC(=O)[C@H](Cc2ccccc2)NC(=O)[C@@H](C(C)C)NC(=O)[C@@H](C(C)CC)NC(=O)[C@H](NC(=O)C(NC(=O)[C@H](CCCN)NC(=O)[C@H]2CCCN2C(=O)[C@H](NC(=O)[C@@H](NC(=O)[C@@H](NC(=O)[C@H](NC(=O)CCCC(C)C)C(C)C)C(C)O)C(C)C)C(C)C)C(C)CC)C(C)OC(=O)[C@H](C(C)C)NC1=O (single isomer, unassigned) [kahalalide F]
[1]
  Grade 1-2 neutropenia, share of patients: 10%
  Grade 1 hypokalyemia, share of patients: 20%
  grade 1 hypophosphatemia, share of patients: 10%
  grade 1 renal toxicity, share of patients: about 35%
  grade 2 hypophosphatemia, share of patients: 15%
  grade 3-4 hematologic toxicities: No grade 3-4 toxicities were reported
[2]; 800-1200 mcg/m2/wk
  incidence of grade 4 hypertransaminasemia: all the patients had grade 4 hypertransaminasemia
[2]; 1200 mcg/m2 weekly
  time of onset of grade 4 hypertransaminasemia after the infusion: 5 h
[2]; Level VI, dose 1000 weekly, 3 patients
  Worst toxicity: Hypersensitivity; also recorded: hypertrans
[2]; highest dose level (1000 and 1200)
  Bronchoconstriction observed: two patients
[2]; patients remained asymptomatic
  reversibility of hypertransaminasemia overall: completely reversible
[2]; patients treated at 1000 and 1200
  reversibility of hypertransaminasemia: not reversible by day 8
[2]; weekly 1 h infusion
  dose at which the DLT (grade 4 hypertransaminasemia non reversible by day 21) was identified: 1200 mcg/m2
[2]; [3]
  Nonhematologic toxicity, laboratory abnormalities: Alk. phosphatase, Grade 1: 27.8
  Nonhematologic toxicity, laboratory abnormalities: Alk. phosphatase, Grade 2: 11.1
  Nonhematologic toxicity, laboratory abnormalities: Alk. phosphatase, Grade 3: 0
  Nonhematologic toxicity, laboratory abnormalities: Alk. phosphatase, Grade 4: 0
  Nonhematologic toxicity, laboratory abnormalities: Bilirubin, Grade 1: 5.6
  Nonhematologic toxicity, laboratory abnormalities: Bilirubin, Grade 2: 0
  Nonhematologic toxicity, laboratory abnormalities: Bilirubin, Grade 3: 0
  Nonhematologic toxicity, laboratory abnormalities: Bilirubin, Grade 4: 0
  Nonhematologic toxicity, laboratory abnormalities: CPK, Grade 1: 36.8
  Nonhematologic toxicity, laboratory abnormalities: CPK, Grade 2: 0
  Nonhematologic toxicity, laboratory abnormalities: CPK, Grade 3: 0
  Nonhematologic toxicity, laboratory abnormalities: CPK, Grade 4: 0
  Nonhematologic toxicity, laboratory abnormalities: Ca++ hyper, Grade 1: 84.2
  Nonhematologic toxicity, laboratory abnormalities: Ca++ hyper, Grade 2: 0
  Nonhematologic toxicity, laboratory abnormalities: Ca++ hyper, Grade 3: 0
  Nonhematologic toxicity, laboratory abnormalities: Ca++ hyper, Grade 4: 0
  Nonhematologic toxicity, laboratory abnormalities: Ca++ hypo, Grade 1: 21.1
  Nonhematologic toxicity, laboratory abnormalities: Ca++ hypo, Grade 2: 0
  Nonhematologic toxicity, laboratory abnormalities: Ca++ hypo, Grade 3: 0
  Nonhematologic toxicity, laboratory abnormalities: Ca++ hypo, Grade 4: 0
  Nonhematologic toxicity, laboratory abnormalities: Creatinine, Grade 1: 31.6
  Nonhematologic toxicity, laboratory abnormalities: Creatinine, Grade 2: 5.3
  Nonhematologic toxicity, laboratory abnormalities: Creatinine, Grade 3: 0
  Nonhematologic toxicity, laboratory abnormalities: Creatinine, Grade 4: 0
  Nonhematologic toxicity, laboratory abnormalities: GGT, Grade 1: 16.7
  Nonhematologic toxicity, laboratory abnormalities: GGT, Grade 2: 11.1
  Nonhematologic toxicity, laboratory abnormalities: GGT, Grade 3: 5.6
  Nonhematologic toxicity, laboratory abnormalities: GGT, Grade 4: 11.1
  Nonhematologic toxicity, laboratory abnormalities: GOT, Grade 1: 38.9
  Nonhematologic toxicity, laboratory abnormalities: GOT, Grade 2: 0
  Nonhematologic toxicity, laboratory abnormalities: GOT, Grade 3: 0
  Nonhematologic toxicity, laboratory abnormalities: GOT, Grade 4: 16.7
  Nonhematologic toxicity, laboratory abnormalities: GPT, Grade 1: 22.2
  Nonhematologic toxicity, laboratory abnormalities: GPT, Grade 2: 5.6
  Nonhematologic toxicity, laboratory abnormalities: GPT, Grade 3: 0
  Nonhematologic toxicity, laboratory abnormalities: GPT, Grade 4: 16.7
  Nonhematologic toxicity, laboratory abnormalities: K+ hypo, Grade 1: 5.3
  Nonhematologic toxicity, laboratory abnormalities: K+ hypo, Grade 2: 0
  Nonhematologic toxicity, laboratory abnormalities: K+ hypo, Grade 3: 0
  Nonhematologic toxicity, laboratory abnormalities: K+ hypo, Grade 4: 0
  Nonhematologic toxicity, laboratory abnormalities: Na+ hypo, Grade 1: 21.1
  Nonhematologic toxicity, laboratory abnormalities: Na+ hypo, Grade 2: 0
  Nonhematologic toxicity, laboratory abnormalities: Na+ hypo, Grade 3: 0
  Nonhematologic toxicity, laboratory abnormalities: Na+ hypo, Grade 4: 5.3
[2]; [4]
  Hematologic toxicity (worst per patient): Hemoglobin, Grade 1: 57.9
  Hematologic toxicity (worst per patient): Hemoglobin, Grade 2: 21.1
  Hematologic toxicity (worst per patient): Hemoglobin, Grade 3: 0
  Hematologic toxicity (worst per patient): Hemoglobin, Grade 4: 0
  Hematologic toxicity (worst per patient): Leukocytes, Grade 1: 15.8
  Hematologic toxicity (worst per patient): Leukocytes, Grade 2: 5.3
  Hematologic toxicity (worst per patient): Leukocytes, Grade 3: 0
  Hematologic toxicity (worst per patient): Leukocytes, Grade 4: 0
  Hematologic toxicity (worst per patient): Neutrophils, Grade 1: 5.3
  Hematologic toxicity (worst per patient): Neutrophils, Grade 2: 5.3
  Hematologic toxicity (worst per patient): Neutrophils, Grade 3: 0
  Hematologic toxicity (worst per patient): Neutrophils, Grade 4: 0
  Hematologic toxicity (worst per patient): Platelets, Grade 1: 10.5
  Hematologic toxicity (worst per patient): Platelets, Grade 2: 0
  Hematologic toxicity (worst per patient): Platelets, Grade 3: 0
  Hematologic toxicity (worst per patient): Platelets, Grade 4: 0
[2]; [5]
  Most frequently reported non-hematologic toxicities: Diarrhea, Grade 1: 0
  Most frequently reported non-hematologic toxicities: Diarrhea, Grade 2: 5.3
  Most frequently reported non-hematologic toxicities: Diarrhea, Grade 3: 5.3
  Most frequently reported non-hematologic toxicities: Diarrhea, Grade 4: 0
  Most frequently reported non-hematologic toxicities: Fatigue, Grade 1: 21.1
  Most frequently reported non-hematologic toxicities: Fatigue, Grade 2: 21.1
  Most frequently reported non-hematologic toxicities: Fatigue, Grade 3: 0
  Most frequently reported non-hematologic toxicities: Fatigue, Grade 4: 0
  Most frequently reported non-hematologic toxicities: Hypersensitivity, Grade 1: 15.8
  Most frequently reported non-hematologic toxicities: Hypersensitivity, Grade 2: 5.3
  Most frequently reported non-hematologic toxicities: Hypersensitivity, Grade 3: 5.3
  Most frequently reported non-hematologic toxicities: Hypersensitivity, Grade 4: 0
  Most frequently reported non-hematologic toxicities: Hypertension, Grade 1: 0
  Most frequently reported non-hematologic toxicities: Hypertension, Grade 2: 0
  Most frequently reported non-hematologic toxicities: Hypertension, Grade 3: 0
  Most frequently reported non-hematologic toxicities: Hypertension, Grade 4: 0
  Most frequently reported non-hematologic toxicities: Inject-site reaction, Grade 1: 0
  Most frequently reported non-hematologic toxicities: Inject-site reaction, Grade 2: 5.3
  Most frequently reported non-hematologic toxicities: Inject-site reaction, Grade 3: 0
  Most frequently reported non-hematologic toxicities: Inject-site reaction, Grade 4: 0
  Most frequently reported non-hematologic toxicities: Nausea, Grade 1: 31.6
  Most frequently reported non-hematologic toxicities: Nausea, Grade 2: 10.5
  Most frequently reported non-hematologic toxicities: Nausea, Grade 3: 0
  Most frequently reported non-hematologic toxicities: Nausea, Grade 4: 0
  Most frequently reported non-hematologic toxicities: Periph-sens neuro, Grade 1: 36.8
  Most frequently reported non-hematologic toxicities: Periph-sens neuro, Grade 2: 0
  Most frequently reported non-hematologic toxicities: Periph-sens neuro, Grade 3: 5.3
  Most frequently reported non-hematologic toxicities: Periph-sens neuro, Grade 4: 0
  Most frequently reported non-hematologic toxicities: Vomiting, Grade 1: 10.5
  Most frequently reported non-hematologic toxicities: Vomiting, Grade 2: 5.3
  Most frequently reported non-hematologic toxicities: Vomiting, Grade 3: 0
  Most frequently reported non-hematologic toxicities: Vomiting, Grade 4: 0
[2]; weekly schedule
  dose limiting toxicity: grade 4 hypertransaminasemia
  time of hypertransaminasemia peak/appearance after the infusion: 4 to 5 h
Solid tumours; [6]
  overall response in a patient with hepatocellular carcinoma: stable disease
  response in a patient with hepatocellular carcinoma (target lesion): Partial response in one target lesion
Solid tumours; 400 mcg/m2 weekly, ORL exploration
  efficacy in a patient with epidermoid carcinoma of the cavum: Subjective improvement and non evaluable response
Solid tumours; 530 mcg/m2 weekly, 4 months (16 infusions)
  efficacy in a patient with non small cell lung cancer: without evidence of progression disease
Solid tumours; Level III, dose 530 weekly
  Efficacy (tumour type with hints of efficacy): NSCLC
Solid tumours; weekly schedule
  efficacy in one patient with peritoneal mesothelioma: clinical benefit with reduction of ascytes volume
Prostate cancer
  concentration from which active in the clonogenic tumour assay: ≥ 15 ng/mL
Female mice
  maximum tolerated dose (MTD): 0.28 mg/kg
